Results on one molecule are retold here after patent publication US7741334B2, “Low dose therapy for treating viral infections” (priority 2004, dated 2010).

By Cmax is commonly meant the maximum level reached in the sampled fluid or tissue. One may read the fraction unbound as the share of the substance not bound to proteins or other matrix. A higher fraction unbound goes with much free substance.

The nature of data set [1]: Therapeutic window from PK versus PD relationship. The conditions noted are these: human. The source says: Pharmacokinetics and pharmacodynamics modeling was used to explore potential dosing regimens for Elvucitabine. A pharmacokinetics (PK) model was developed to describe both the plasma concentration-time data and excreted urinary amounts from previously completed studies with Elvucitabine. With the PK model in hand and pharmacodynamics (PD) results of previously completed studies, the relationship of PK and PD from an efficacy and toxicity standpoint is obtained. From the results of the PK and PD studies, a therapeutic window of Elvucitabine is defined and simulated dosing regimens ranging from 5 mg BID to 100 mg Q1 week were explored using ADAPT II® Pharmacokinetic and Pharmacodynamic Systems Analysis Software. From the simulated dosing regimen results, ten dosing regimens were identified allowing maintenance therapy with Elvucitabine at levels effective against both HIV and HBV while avoiding bone toxicity.
From the foregoing results, a therapeutic window of Elvucitabine was identified. It has been determined that a 5 mg QD dose is effective for HBV and, therefore, a plasma AUCss/24 of 300 μg·h/L was identified as the efficacy threshold.

Data set [2] in a line: Population PK analysis of plasma and urine data, study ACH443-011, 1×20 mg tablet PO. The conditions noted are these: human, in vivo. As to the method: The PK model created included an individual compartmental PK analysis using ADAPT-II® and Population PK analysis using an iterative two-stage population modeling technique (IT2S®) of plasma and urine data from a study of healthy subjects, n=29, 1×20 mg tablet PO (ACH443-011). FIG. 1 illustrates the PK model of Elvucitabine according to a three compartment model characterized by two absorption peaks, each associated with a lag time and a first order absorption rate constant.
FIG. 2 illustrates an example of individual fit using a Population PK analysis (IT2S).

For the molecule `Nc1nc(=O)n([C@H]2C=C[C@@H](CO)O2)cc1F` [Elvucitabine, 4-amino-5-fluoro-1-((2R,5S)-5-(hydroxymethyl)-2,5-dihydrofuran-2-yl)pyrimidin-2(1H)-one], in data set [1], the peak concentration (Cmax) is above 40 ng/mL and the “central compartment (plasma) Cmin at onset of toxicity” value is at least 23 ng/mL. Further, in data set [2], the “apparent volume of distribution (VSS)” value is reported as 1600 L and the free fraction (fraction unbound) came to 0.396.
